In patent US6358885B1, “Substituted phenylheterocyclic herbicides” (Mississippi State University, priority 1992, dated 2002):

Assays:
Experiment in all cases: Test B preemergence/postemergence greenhouse plant response rating 0 to 10
crabgrass = format: in vivo, Digitaria spp.; conditions: for Plant response rating, Crabgrass: 0 to 10 scale
Summary of the method: (§1)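 Postemergence treatment of plants two to eighteen cm tall ran alongside preemergence treatment of planted seed, each using compound in a non-phytotoxic solvent.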

cotton = format: in vivo, Gossypium hirsutum; conditions: for Plant response rating, Cotton: 0 to 10 scale
Summary of the method: as §1

giant foxtail = format: in vivo, Setaria faberii; conditions: 0 to 10 scale
Summary of the method: as §1

cheatgrass = format: in vivo, Bromus secalinus; conditions: for Plant response rating, Cheatgrass: 0 to 10 scale
Summary of the method: as §1

cocklebur = format: in vivo, Xanthium pensylvanicum; conditions: for Plant response rating, Cocklebur: 0 to 10 scale
Summary of the method: as §1

bedstraw = format: in vivo, Galium aparine; conditions: for Plant response rating, Bedstraw: 0 to 10 scale
Summary of the method: as §1

morningglory = format: in vivo, Ipomoea hederacea; conditions: 0 to 10 scale
Summary of the method: as §1

rape = format: in vivo, Brassica napus; conditions: 0 to 10 scale
Summary of the method: as §1

Structure (SMILES): Fc1cc(Cl)c(OCc2ccccc2)cc1-c1nn2c(c1Cl)CCCC2 [Compound 22]
- Plant response rating (0 to 10 scale), Crabgrass (crabgrass; POSTEMERGENCE, Rate 50 g/ha): 3
- Plant response rating, Crabgrass (crabgrass; POSTEMERGENCE, Rate 200 g/ha): 2
- Plant response rating, Crabgrass (crabgrass; PREEMERGENCE, Rate 50 g/ha): 2
- Plant response rating, Crabgrass (crabgrass; Rate 200 g/ha, PREEMERGENCE): 4
- Plant response rating (0 to 10 scale), Cotton (cotton; POSTEMERGENCE, Rate 50 g/ha): 10
- Plant response rating, Cotton (cotton; POSTEMERGENCE, Rate 200 g/ha): 10
- Plant response rating, Cotton (cotton; PREEMERGENCE, Rate 50 g/ha): 2
- Plant response rating, Cotton (cotton; Rate 200 g/ha, PREEMERGENCE): 4
- Plant response rating, Giant foxtail (giant foxtail; POSTEMERGENCE, Rate 50 g/ha): 3
- Plant response rating, Giant foxtail (giant foxtail; POSTEMERGENCE, Rate 200 g/ha): 4
- Plant response rating, Giant foxtail (giant foxtail; PREEMERGENCE, Rate 50 g/ha): 3
- Plant response rating, Giant foxtail (giant foxtail; Rate 200 g/ha, PREEMERGENCE): 9
- Plant response rating (0 to 10 scale), Cheatgrass (cheatgrass; POSTEMERGENCE, Rate 50 g/ha): 3
- Plant response rating, Cheatgrass (cheatgrass; POSTEMERGENCE, Rate 200 g/ha): 4
- Plant response rating, Cheatgrass (cheatgrass; PREEMERGENCE, Rate 50 g/ha): 0
- Plant response rating, Cheatgrass (cheatgrass; Rate 200 g/ha, PREEMERGENCE): 3
- Plant response rating (0 to 10 scale), Cocklebur (cocklebur; POSTEMERGENCE, Rate 50 g/ha): 7
- Plant response rating, Cocklebur (cocklebur; POSTEMERGENCE, Rate 200 g/ha): 8
- Plant response rating, Cocklebur (cocklebur; PREEMERGENCE, Rate 50 g/ha): 0
- Plant response rating, Cocklebur (cocklebur; Rate 200 g/ha, PREEMERGENCE): 1
- Plant response rating (0 to 10 scale), Bedstraw (bedstraw; POSTEMERGENCE, Rate 50 g/ha): 8
- Plant response rating, Bedstraw (bedstraw; POSTEMERGENCE, Rate 200 g/ha): 8
- Plant response rating, Bedstraw (bedstraw; Rate 200 g/ha, PREEMERGENCE): 10
- Plant response rating, Morningglory (morningglory; POSTEMERGENCE, Rate 50 g/ha): 5
- Plant response rating, Morningglory (morningglory; POSTEMERGENCE, Rate 200 g/ha): 9
- Plant response rating, Morningglory (morningglory; PREEMERGENCE, Rate 50 g/ha): 2
- Plant response rating, Morningglory (morningglory; Rate 200 g/ha, PREEMERGENCE): 2
- Plant response rating, Rape (rape; POSTEMERGENCE, Rate 50 g/ha): 4
- Plant response rating, Rape (rape; POSTEMERGENCE, Rate 200 g/ha): 7
- Plant response rating, Rape (rape; PREEMERGENCE, Rate 50 g/ha): 0
- Plant response rating, Rape (rape; Rate 200 g/ha, PREEMERGENCE): 1

Structure (SMILES): CCCOc1cc(-c2nn3c(c2Cl)CCCC3)c(F)cc1Cl [Compound 23]
- Plant response rating (0 to 10 scale), Crabgrass (crabgrass; POSTEMERGENCE, Rate 50 g/ha): 2
- Plant response rating, Crabgrass (crabgrass; POSTEMERGENCE, Rate 200 g/ha): 6
- Plant response rating, Crabgrass (crabgrass; PREEMERGENCE, Rate 50 g/ha): 2
- Plant response rating, Crabgrass (crabgrass; Rate 200 g/ha, PREEMERGENCE): 9
- Plant response rating (0 to 10 scale), Cotton (cotton; POSTEMERGENCE, Rate 50 g/ha): 10
- Plant response rating, Cotton (cotton; POSTEMERGENCE, Rate 200 g/ha): 10
- Plant response rating, Cotton (cotton; PREEMERGENCE, Rate 50 g/ha): 5
- Plant response rating, Cotton (cotton; Rate 200 g/ha, PREEMERGENCE): 5
- Plant response rating, Giant foxtail (giant foxtail; POSTEMERGENCE, Rate 50 g/ha): 5
- Plant response rating, Giant foxtail (giant foxtail; POSTEMERGENCE, Rate 200 g/ha): 7
- Plant response rating, Giant foxtail (giant foxtail; PREEMERGENCE, Rate 50 g/ha): 6
- Plant response rating, Giant foxtail (giant foxtail; Rate 200 g/ha, PREEMERGENCE): 9
- Plant response rating (0 to 10 scale), Cheatgrass (cheatgrass; POSTEMERGENCE, Rate 50 g/ha): 6
- Plant response rating, Cheatgrass (cheatgrass; POSTEMERGENCE, Rate 200 g/ha): 8
- Plant response rating, Cheatgrass (cheatgrass; PREEMERGENCE, Rate 50 g/ha): 4
- Plant response rating, Cheatgrass (cheatgrass; Rate 200 g/ha, PREEMERGENCE): 6
- Plant response rating (0 to 10 scale), Cocklebur (cocklebur; POSTEMERGENCE, Rate 50 g/ha): 8
- Plant response rating, Cocklebur (cocklebur; POSTEMERGENCE, Rate 200 g/ha): 10
- Plant response rating, Cocklebur (cocklebur; PREEMERGENCE, Rate 50 g/ha): 0
- Plant response rating, Cocklebur (cocklebur; Rate 200 g/ha, PREEMERGENCE): 8
- Plant response rating (0 to 10 scale), Bedstraw (bedstraw; POSTEMERGENCE, Rate 50 g/ha): 7
- Plant response rating, Bedstraw (bedstraw; POSTEMERGENCE, Rate 200 g/ha): 9
- Plant response rating, Bedstraw (bedstraw; PREEMERGENCE, Rate 50 g/ha): 5
- Plant response rating, Bedstraw (bedstraw; Rate 200 g/ha, PREEMERGENCE): 5
- Plant response rating, Morningglory (morningglory; POSTEMERGENCE, Rate 50 g/ha): 8
- Plant response rating, Morningglory (morningglory; POSTEMERGENCE, Rate 200 g/ha): 10
- Plant response rating, Morningglory (morningglory; PREEMERGENCE, Rate 50 g/ha): 3
- Plant response rating, Morningglory (morningglory; Rate 200 g/ha, PREEMERGENCE): 8
- Plant response rating, Rape (rape; POSTEMERGENCE, Rate 50 g/ha): 6
- Plant response rating, Rape (rape; POSTEMERGENCE, Rate 200 g/ha): 10
- Plant response rating, Rape (rape; PREEMERGENCE, Rate 50 g/ha): 3
- Plant response rating, Rape (rape; Rate 200 g/ha, PREEMERGENCE): 6

Structure (SMILES): Fc1cc(Cl)c(OC2CCCC2)cc1-c1nn2c(c1Cl)CCCC2 [Compound 24]
- Plant response rating (0 to 10 scale), Crabgrass (crabgrass; POSTEMERGENCE, Rate 50 g/ha): 5
- Plant response rating, Crabgrass (crabgrass; POSTEMERGENCE, Rate 200 g/ha): 5
- Plant response rating, Crabgrass (crabgrass; PREEMERGENCE, Rate 50 g/ha): 0
- Plant response rating, Crabgrass (crabgrass; Rate 200 g/ha, PREEMERGENCE): 7
- Plant response rating (0 to 10 scale), Cotton (cotton; POSTEMERGENCE, Rate 50 g/ha): 10
- Plant response rating, Cotton (cotton; POSTEMERGENCE, Rate 200 g/ha): 10
- Plant response rating, Cotton (cotton; PREEMERGENCE, Rate 50 g/ha): 3
- Plant response rating, Cotton (cotton; Rate 200 g/ha, PREEMERGENCE): 8
- Plant response rating, Giant foxtail (giant foxtail; POSTEMERGENCE, Rate 50 g/ha): 4
- Plant response rating, Giant foxtail (giant foxtail; POSTEMERGENCE, Rate 200 g/ha): 5
- Plant response rating, Giant foxtail (giant foxtail; PREEMERGENCE, Rate 50 g/ha): 3
- Plant response rating, Giant foxtail (giant foxtail; Rate 200 g/ha, PREEMERGENCE): 8
- Plant response rating (0 to 10 scale), Cheatgrass (cheatgrass; POSTEMERGENCE, Rate 50 g/ha): 3
- Plant response rating, Cheatgrass (cheatgrass; POSTEMERGENCE, Rate 200 g/ha): 5
- Plant response rating, Cheatgrass (cheatgrass; PREEMERGENCE, Rate 50 g/ha): 0
- Plant response rating, Cheatgrass (cheatgrass; Rate 200 g/ha, PREEMERGENCE): 4
- Plant response rating (0 to 10 scale), Cocklebur (cocklebur; POSTEMERGENCE, Rate 50 g/ha): 8
- Plant response rating, Cocklebur (cocklebur; POSTEMERGENCE, Rate 200 g/ha): 9
- Plant response rating, Cocklebur (cocklebur; PREEMERGENCE, Rate 50 g/ha): 0
- Plant response rating, Cocklebur (cocklebur; Rate 200 g/ha, PREEMERGENCE): 1
- Plant response rating (0 to 10 scale), Bedstraw (bedstraw; POSTEMERGENCE, Rate 50 g/ha): 6
- Plant response rating, Bedstraw (bedstraw; POSTEMERGENCE, Rate 200 g/ha): 7
- Plant response rating, Bedstraw (bedstraw; PREEMERGENCE, Rate 50 g/ha): 3
- Plant response rating, Bedstraw (bedstraw; Rate 200 g/ha, PREEMERGENCE): 5
- Plant response rating, Morningglory (morningglory; POSTEMERGENCE, Rate 50 g/ha): 9
- Plant response rating, Morningglory (morningglory; POSTEMERGENCE, Rate 200 g/ha): 8
- Plant response rating, Morningglory (morningglory; PREEMERGENCE, Rate 50 g/ha): 1
- Plant response rating, Morningglory (morningglory; Rate 200 g/ha, PREEMERGENCE): 5
- Plant response rating, Rape (rape; POSTEMERGENCE, Rate 50 g/ha): 5
- Plant response rating, Rape (rape; POSTEMERGENCE, Rate 200 g/ha): 7
- Plant response rating, Rape (rape; PREEMERGENCE, Rate 50 g/ha): 2
- Plant response rating, Rape (rape; Rate 200 g/ha, PREEMERGENCE): 8
